# Measured values taken from patent US11744802B2, “Therapeutic compositions for treatment of human immunodeficiency virus” (Gilead Sciences, Inc., priority 2015, dated 2023).
# Read-outs that look alike come from different tables or passages of the source.
# What was measured:
# [1] = Relative bioavailability and food-effect crossover study, cohort 1 (bilayer tablet F2 vs F1 co-administered with F3); details: for AUC(0-inf): AUCinf; for AUC(0-t): AUClast
# Protocol: Studies were carried out to assess the pharmacokinetic profiles of the formulations F1, F2, and F3 of Examples 1, 2, and 2A. A randomized, open-label, multiple-period, fixed-sequence, crossover study was performed to evaluate the relative bioavailability of bilayer tablet formulation F2 compared with that of single agent tablet formulation F1 co-administered simultaneously with a fixed-dose combination tablet containing emtricitabine and tenofovir alafenamide (tablet formulation F3). The bioavailability was evaluated in healthy subjects.
# The following plasma pharmacokinetic parameters were calculated: Cmax, AUClast, and AUCinf.
# Pharmacokinetics: Plasma concentrations and PK parameters were listed and summarized by analyte and treatment group using descriptive statistics. In addition, a parametric analysis of variance using a mixed-effects model appropriate for a crossover design was fitted to the natural logarithmic transformation of the PK parameters (AUCinf, AUClast, and Cmax).
# [2] = Food effect on single dose Compound of Formula I 100 mg single agent tablet (8 subjects); assay type: in vivo, human; details: for AUC(0-inf) / AUC(0-t) / Cmax: human, plasma, oral, 100 mg, mean, Compound of Formula I 100 mg single agent tablet, n = 8
# Protocol: In this study, a single dose of the compound of Formula I was administered in two periods with fixed sequence under fasted and fed conditions respectively. A washout of at least five half-lives was required between fasted and fed sequences.
# Subjects continued to fast until 4 hours post dose or until collection of the 4-hour postdose blood sample.
# The 90% CI for the geometric least square mean (GLSM) ratios for fast versus fed was constructed. The statistical comparison of the pharmacokinetic parameters of the compound of Formula 1 following single dose administration of this tablet formulation in fed and fasted states is presented in the table below.
# [3] = Pharmacokinetic study cohort 2 (bilayer tablet F7 vs F1 + F3; food effect on F7); details: for AUCinf, Mean (% CV) / Cmax, Mean (% CV) / AUClast, Mean (% CV): plasma;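 on all read-outs here: plasma PK parameters per analyte summarized descriptively, with GLSM ratios derived from mixed-effects ANOVA on ln-transformed values (treatment as fixed effect, subject as random effect)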
# Protocol: (§1) The pharmacokinetic study of Example 3 was continued with a second treatment group (cohort) to assess the pharmacokinetic profile of formulation F7 of Example 7 compared with that of formulation F2.
# (§2) The following plasma pharmacokinetic parameters were calculated: AUClast, AUCinf, % AUCexp, Cmax, Clast, Tmax, Tlast, CL/F, Vz/F, and t1/2.
# (§3) Pharmacokinetics: Individual subject concentration data and individual subject PK parameters for each analyte (compound of Formula 1, FTC, and TAF) were listed and summarized using descriptive statistics by treatment group (cohort) and treatment. Summary statistics were determined for both individual subject concentration data by time point, cohort, and treatment and individual subject PK parameters by cohort and treatment. Also, the geometric mean, 95% confidence interval (CI), and the mean, and standard deviation (SD) of the natural log-transformed values were presented for individual subject PK parameter data. The sample size for each time point was based on the number of subjects with nonmissing concentration data at that time point. The number of subjects with concentration below the level of quantitation (BLQ) was presented for each time point.
# (§4) Statistical comparisons of the natural log-transformed PK parameters for each analyte and treatment comparison of interest were performed. The statistical modelling was based on the PK Analysis set for the analyte under evaluation. For each analyte, all subjects with available data for the PK parameter under evaluation were included in the modelling. The statistical comparisons using Treatment A as a reference only used data from this cohort, not from the earlier cohort of Example 3 (i.e., Treatment A was not pooled).
# (§5) For each analyte and each PK parameter, a parametric (normal theory) mixed-effects ANOVA model was fitted to the natural log-transformed values of the PK parameter under evaluation. The statistical model included treatment as a fixed effect and subject as a random effect.
# [4] = Physicochemical properties of the active ingredients (pKa, pH-dependent solubility and stability, BCS class); details: for pH of maximum solubility: pH-dependent solubility
# [5] = in vivo
# Protocol: as §1, §2, §3, §4, §5
# [6] = human, plasma, oral, mean, F2 Compound of Formula I/F/TAF (75/200/25 mg), high-fat meal, Test, N = 28
# [7] = human, plasma, oral, plasma, mean, F1 Compound of Formula I (75 mg) + F3 F/TAF (200/25 mg) co-administered, fasted, Reference, N = 28, cohort 1
# [8] = 100 mg single dose, high-calorie/high-fat breakfast
# [9] = F7 (50/200/25 mg), high fat meal, N = 27
# [10] = F7 (50/200/25 mg), moderate fat meal, N = 27
# [11] = Formulation F1 + F3 (75 mg + F/TAF 200/25 mg), fasted, Reference, N = 28, cohort 2
# [12] = F2 (75/200/25 mg) high-fat meal / fasted
# [13] = Test F2 (75/200/25 mg) / Reference F1 + F3, fasted
# [14] = human, in vivo, plasma, mean, F1 Compound of Formula I (75 mg) + F3 F/TAF (200/25 mg) co-administered, fasted, Reference, N = 28, cohort 1
# [15] = human, in vivo, plasma, mean, F2 Compound of Formula I/F/TAF (75/200/25 mg), high-fat meal, Test, N = 28
# [16] = human, in vivo, plasma, mean, bilayer tablet F2 Compound of Formula I/F/TAF (75/200/25 mg), single dose, fasted, N = 28
# [17] = Test F7 (50/200/25 mg) / Reference F1 + F3, fasted
structure (smiles),measurement,setting,value
"O=C(NCc1c(F)cc(F)cc1F)c1cn2c(c(O)c1=O)C(=O)N1[C@H]3CC[C@H](C3)O[C@@H]1C2 [Compound of Formula I, (2R,5S,13aR)-8-hydroxy-7,9-dioxo-N-(2,4,6-trifluorobenzyl)-2,3,4,5,7,9,13,13a-octahydro-2,5-methanopyrido[1′,2′:4,5]pyrazino[2,1-b][1,3]oxazepine-10-carboxamide]",AUCinf higher after F2 than after F1 with F3,[1]; fasted,27%
same,Cmax higher after F2 than after F1 with F3,[1]; fasted,31%
same,total exposure higher in F2 than in F1 co-dosed with F3,[1]; fasted,approximately 30%
same,AUC(0-inf),[1]; [6],226 µg·h/mL
same,AUC(0-inf),[1]; [7],123 µg·h/mL
same,AUC(0-t),[1]; [6],217 µg·h/mL
same,AUC(0-t),"[1]; human, plasma, oral, mean, bilayer tablet F2 Compound of Formula I/F/TAF (75/200/25 mg), single dose, fasted, N = 28",152 µg·h/mL
same,AUC(0-t),[1]; [7],120 µg·h/mL
same,Cmax,[1]; [7],5590 ng/mL
same,AUCinf,"[1]; plasma, mean, bilayer tablet F2 Compound of Formula I/F/TAF (75/200/25 mg), single dose, fasted, N = 28","156,637.5 h · ng/mL"
same,AUCinf higher with high-fat meal than fasted,[1]; tablet formulation F2,46%
same,Cmax higher with high-fat meal than fasted,[1]; tablet formulation F2,27%
same,changes in clearance and t1/2 following administration with food,[2]; 100 mg single dose,no apparent changes
same,increase of GLSM value of AUCinf with food,[2]; [8],84%
same,increase of GLSM value of Cmax with food,[2]; [8],101%
same,AUC(0-inf),[2]; Fasted,118 µg·h/mL
same,AUC(0-t),[2]; Fasted,116 µg·h/mL
same,Cmax,[2]; Fasted,5880 ng/mL
same,AUC(0-inf),[2]; Fed (high-fat breakfast),214 µg·h/mL
same,AUC(0-t),[2]; Fed (high-fat breakfast),209 µg·h/mL
same,Cmax,[2]; Fed (high-fat breakfast),11300 ng/mL
same,exposure in Formulation F7 compared with Formulation F2,[3]; 50 mg vs 75 mg dose,proportionally lower
same,"AUCinf, Mean (% CV)",[3]; [9],"140,032.4 (21.8) hr · ng/mL"
same,"Cmax, Mean (% CV)",[3]; [9],5936.3 (18.3) ng/mL
same,"AUCinf, Mean (% CV)",[3]; [10],"140,197.7 (23.6) hr · ng/mL"
same,"Cmax, Mean (% CV)",[3]; [10],6279.6 (18.3) ng/mL
same,"AUCinf, Mean (% CV)",[3]; [11],"146,931.6 (31.1) hr · ng/mL"
same,"Cmax, Mean (% CV)",[3]; [11],6791.1 (26.4) ng/mL
same,AUCinf higher with high-fat meal than fasted,[3]; tablet formulation F7,24%
same,AUCinf higher with moderate fat meal than fasted,[3]; tablet formulation F7,24%
same,Cmax higher with high-fat meal than fasted,[3]; tablet formulation F7,13%
same,Cmax higher with moderate fat meal than fasted,[3]; tablet formulation F7,20%
same,BCS class,[4],BCS Class 2
same,pH of maximum chemical stability,[4],4
same,pKa,[4],8.6
same,solubility (BCS classification),[4],low solubility
same,pH of maximum solubility,[4],10.5
CC(C)OC(=O)[C@H](C)N[P@](=O)(CO[C@H](C)Cn1cnc2c(N)ncnc21)Oc1ccccc1 [Tenofovir alafenamide],% GLSM Ratio of AUCinf,[1]; [12],158.20%
same,% GLSM Ratio of AUClast,[1]; [12],156.81%
same,% GLSM Ratio of Cmax,[1]; [12],83.22%
same,% GLSM Ratio of AUCinf,[1]; [13],91.56%
same,% GLSM Ratio of AUClast,[1]; [13],91.62%
same,% GLSM Ratio of Cmax,[1]; [13],95.47%
same,geometric mean ratio of AUCinf (food effect),[1]; bilayer tablet formulation F2,1.58
same,geometric mean ratio of Cmax (food effect),[1]; bilayer tablet formulation F2,0.83
same,exposure following F2 compared with F1 with the F/TAF FDC (F3),[1]; fasted,similar
same,AUC(0-inf),[1]; [14],0.225 µg·h/mL
same,AUC(0-inf),[1]; [15],0.32 µg·h/mL
same,AUC(0-inf),[1]; [16],0.207 µg·h/mL
same,AUC(0-t),[1]; [14],0.224 µg·h/mL
same,AUC(0-t),[1]; [15],0.315 µg·h/mL
same,AUC(0-t),[1]; [16],0.206 µg·h/mL
same,Cmax,[1]; [14],277 ng/mL
same,Cmax,[1]; [15],212 ng/mL
same,Cmax,[1]; [16],253 ng/mL
same,geometric mean ratio of Cmax (food effect),[1]; tablet formulation F1 (codosed with F3),0.85
same,geometric mean ratio of AUCinf (food effect),[1]; tablet formulation F1 codosed with tablet formulation F3,1.75
same,% GLSM Ratio (90% CI) of AUCinf,[3]; F7 high fat meal / fasted,"166.55 (146.54, 189.29) %"
same,% GLSM Ratio (90% CI) of AUClast,[3]; F7 high fat meal / fasted,"162.62 (143.10, 184.80) %"
same,% GLSM Ratio (90% CI) of Cmax,[3]; F7 high fat meal / fasted,"91.71 (73.46, 114.49) %"
same,% GLSM Ratio (90% CI) of AUCinf,[3]; F7 moderate fat meal / fasted,"148.23 (130.42, 168.47) %"
same,% GLSM Ratio (90% CI) of AUClast,[3]; F7 moderate fat meal / fasted,"148.20 (130.41, 168.41) %"
same,% GLSM Ratio (90% CI) of Cmax,[3]; F7 moderate fat meal / fasted,"99.04 (79.33, 123.65) %"
same,% GLSM Ratio (90% CI) of AUCinf,[3]; [17],"85.48 (75.33, 97.00) %"
same,% GLSM Ratio (90% CI) of AUClast,[3]; [17],"85.37 (75.24, 96.85) %"
same,% GLSM Ratio (90% CI) of Cmax,[3]; [17],"84.17 (67.59, 104.81) %"
same,Cmax lower for Formulation F7 than for the coadministered reference tablets,[3]; fasted,approximately 16%
same,exposure of Formulation F7 compared with coadministered reference tablets,[3]; fasted,similar
same,"AUCinf, Mean (% CV)",[3]; [9],318.4 (32.8) hr · ng/mL
same,"AUClast, Mean (% CV)",[3]; [9],310.3 (34.9) hr · ng/mL
same,"Cmax, Mean (% CV)",[3]; [9],236.6 (65.1) ng/mL
same,"AUCinf, Mean (% CV)",[3]; [10],293.1 (40.9) hr · ng/mL
same,"AUClast, Mean (% CV)",[3]; [10],290.6 (41.3) hr · ng/mL
same,"Cmax, Mean (% CV)",[3]; [10],251.1 (66.7) ng/mL
same,"AUCinf, Mean (% CV)",[3]; [11],238.3 (45.0) hr · ng/mL
same,"AUClast, Mean (% CV)",[3]; [11],236.7 (45.3) hr · ng/mL
same,"Cmax, Mean (% CV)",[3]; [11],291.9 (55.4) ng/mL
same,BCS class,[4],BCS Class 3
same,pKa,[4],3.9
same,solubility (BCS classification),[4],high equilibrium solubility
same,permeability (BCS classification),[4]; not told,lower apparent permeability
same,pH of maximum solubility,[4],~3
"Nc1nc(=O)n([C@@H]2CS[C@H](CO)O2)cc1F [Emtricitabine, 4-amino-5-fluoro-1-[(2R,5S)-2-(hydroxymethyl)-1,3-oxathiolan-5-yl]-1,2-dihydropyrimidin-2-one]",geometric mean ratio of AUCinf (food effect),"[1]; human, in vivo",1.00
same,geometric mean ratio of Cmax (food effect),"[1]; human, in vivo",0.83
same,exposure following F2 compared with F1 with the F/TAF FDC (F3),[1]; in vivo,similar
same,exposure of Formulation F7 compared with coadministered reference tablets,[5],similar
same,BCS class,[4],BCS Class 1
same,pKa,[4],2.65
same,solubility (BCS classification),[4],high solubility
